This is an account of results in article PMC3555856, “In vitro α-glucosidase inhibitory activity of phenolic constituents from aerial parts of Polygonum hyrcanicum” (DARU Journal of Pharmaceutical Sciences, 2012).

Experiment [1] has as its target T1, α-glucosidase (EC 3.2.1.20, from baker's yeast) (Saccharomyces cerevisiae, UniProt P53341).
T1 construct: purchased Sigma-Aldrich Chemie (Germany)
The experiment in a line: biochemical. The settings on record: pH 6.9, 37°C. As for the experimental part: Column chromatography was carried out using silica gel (230–400 mesh) obtained from Merck (Germany), RP-18 (230–400 mesh) and Sephadex LH-20 procured from Fluka (Switzerland). Pre-coated silica gel 60 F254 plates and silica gel 60 RP-18 F254S plates (Merck, Germany) were used for TLC. Spots were observed under UV at 254 and 366 nm and spraying with anisaldehyde-H2SO4 reagent (Sigma-Aldrich Chemie, Germany) and heating at 120°C for 5 min. HPLC separations were performed on a Knauer Wellchrom system connected to a photodiode array detector (Smart line system, Germany). ^1H and ^13C NMR spectra were measured on a Bruker Avance DRX 500 spectrometer operating at 500 MHz for ^1H and 125 MHz for ^13C using a 5 mm PABBO probehead. α-glucosidase (EC 3.2.1.20, from baker’s yeast, 77 U/mg), p-nitrophenyl-α-d-glucopyranoside, vitamin E 97% and 2, 2-diphenyl-picrylhydrazyl (DPPH) were obtained from Sigma-Aldrich Chemie (Germany). Sodium carbonate, FeCl3, sodium acetate, ferrous sulfate [FeSO4.7H2O], gallic acid, 2, 4, 6-tripyridyl-s-triazine (TPTZ) solution, and Folin-Ciocalteu reagent were all obtained from Merck (Germany).
α-Glucosidase inhibitory activities were evaluated according to the chromogenic method described by McCue et al. (2005), with some modifications. The enzyme solution contained 20 μl α-glucosidase (0.5 unit/ml) and 120 μl 0.1 M phosphate buffer (pH 6.9). p-Nitrophenyl-α-D-glucopyranoside (5 mM) in the same buffer (pH 6.9) was used as a substrate solution. Ten microliters of test samples, dissolved in DMSO at various concentrations, were mixed with enzyme solution in microplate wells and incubated for 15 min at 37°C. Twenty microliters of substrate solution were added and incubated for an additional 15 min. The reaction was terminated by adding 80 μl of 0.2 M sodium carbonate solution. Absorbance of the wells was measured with a microplate reader at 405 nm, while the reaction system without plant extracts was used as control. […] Each experiment was conducted in triplicate. The enzyme inhibitory rates of samples were calculated as follows:
Inhibition%=[(control absorption-sample absorption)/control absorption)]×100.
The IC50 values of samples were calculated and reported as the mean ± standard deviation (SD) of three experiments.

Experiment [2] in a line: DPPH free radical scavenging activity. Conditions: absorbance at 517 nm after 30 minutes. As for the experimental part:
The antioxidant activities of the extracts were determined with the DPPH assay according to an established protocol. Extract solutions of 500, 250, 100, and 50 μg/ml were prepared in methanol. Each test tube contained 1 ml of the samples and 2 ml freshly prepared DPPH solution of 40 μg/ml in methanol. […] Absorbance of the mixtures were recorded at 517 nm after 30 minutes, against the blank covets of DPPH solution. Vitamin E was used as a positive control. All samples were assayed in triplicate and IC50 values were calculated.

The nature of experiment [3]: FRAP assay (ferric-reducing ability). The settings on record: 37°C, 10 minutes, 593 nm. As for the experimental part: Antioxidant activities of plant extracts were evaluated by monitoring their ferric-reducing abilities. Freshly prepared FRAP reagent contained 5 ml FeCl3 (20 mM) plus 5 ml of a 10 mM TPTZ solution in 40 mM HCl and 50 ml of 300 mM acetate buffer (pH = 3.6). One hundred microliters of the samples, dissolved in methanol at various concentrations, were mixed with 3 ml FRAP reagent and incubated at 37°C for 10 minutes; the absorptions at 593 nm were recorded. A calibration curve was generated in the range of 125–750 μM ferrous sulfate (FeSO4.7H2O). Vitamin E was used as a positive control and the results were expressed as mmol ferrous ion equivalent per gram of extracts.

Setting [4] is: mean ± SD of three experiments, read-out: α-Glucosidase inhibitory activity IC50.
The mark [5] stands for this setting: α-Glucosidase inhibitory activity IC50, mean ± SD of three experiments.

Where two headings read alike, the source gives them in different places.

T1 sequence (P53341 whole entry): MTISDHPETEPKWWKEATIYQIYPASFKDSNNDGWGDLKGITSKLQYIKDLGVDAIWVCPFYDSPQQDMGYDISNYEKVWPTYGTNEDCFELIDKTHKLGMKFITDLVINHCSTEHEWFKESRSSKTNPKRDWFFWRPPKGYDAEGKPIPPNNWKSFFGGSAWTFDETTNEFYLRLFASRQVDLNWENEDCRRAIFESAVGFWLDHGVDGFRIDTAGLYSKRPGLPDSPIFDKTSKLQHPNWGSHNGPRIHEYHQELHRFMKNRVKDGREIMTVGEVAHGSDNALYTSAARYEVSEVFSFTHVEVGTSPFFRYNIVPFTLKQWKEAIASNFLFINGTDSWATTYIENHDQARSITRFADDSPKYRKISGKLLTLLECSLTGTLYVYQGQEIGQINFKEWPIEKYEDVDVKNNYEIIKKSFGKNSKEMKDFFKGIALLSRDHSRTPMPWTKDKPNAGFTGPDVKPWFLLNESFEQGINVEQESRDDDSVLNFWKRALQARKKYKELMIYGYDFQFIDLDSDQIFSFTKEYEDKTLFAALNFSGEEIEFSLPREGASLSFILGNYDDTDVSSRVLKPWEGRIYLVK

Take `CC(=O)OC[C@@H]1O[C@@H](Oc2c(-c3ccc(O)c(O)c3)oc3cc(O)cc(O)c3c2=O)[C@H](O)[C@H]1OC(C)=O` [Compound 4, quercetin 3-O-α-L-(3",5"-diacetyl-arabinofuranoside)]: in experiment [1] (setting [4]), the IC50 stood at 4.9 ± 1.5 µM.
vitamin E: the “DPPH assay IC50” value in experiment [2] was 14.12 ± 0.9 µg/mL; in experiment [2] (listed as vitamin E) it was 14.1 µg/mL. The FRAP assay in experiment [3] is 2.40 ± 0.76 mmol ferrous ion equivalent/g; in experiment [3] (listed as vitamin E), 2.4 mmol ferrous ion equivalent/g.
`O=c1c(OC2OC(CO)C(O)C(O)C2O)c(-c2cc(O)c(O)c(O)c2)oc2cc(O)cc(O)c12` [Compound 9, myricetin 3-O-β-D-galactopyranoside]: the IC50 in experiment [1] (setting [4]) is 4.8 ± 0.8 µM.
Compound `O=c1c(O[C@@H]2O[C@@H](CO)[C@H](O)[C@H]2O)c(-c2ccc(O)c(O)c2)oc2cc(O)cc(O)c12` [Compound 13, quercetin 3-O-α-L-arabinofuranoside] returned an IC50 in experiment [1] (setting [5]) of 7.6 ± 0.9 µM.
With `CC(=O)OC1C(CO)OC(Oc2c(-c3ccc(O)c(O)c3)oc3cc(O)cc(O)c3c2=O)C1O` [Compound 5, quercetin 3-O-α-L-(3"-acetyl-arabinofuranoside)], the IC50 in experiment [1] (setting [4]) was 4.8 ± 1.9 µM.
Regarding `O=C(/C=C/c1ccc(O)c(O)c1)NCCc1ccc(O)cc1` [Compound 3, N-trans-caffeoyl-tyramine], in experiment [1] (setting [4]), the IC50 turned out to be 0.3 ± 0.3 µM.
Consider `O=c1c(O)c(-c2cc(O)c(O)c(O)c2)oc2cc(O)cc(O)c12` [Compound 2, myricetin], for which the IC50 in experiment [1] (setting [5]) turned out to be 1.3 ± 0.6 µM.
For `Oc1cc(O)c2c(c1)OC(c1ccc(O)c(O)c1)C(O)C2` (single isomer, unassigned; (+)) [Compound 7, (+) catechin], the IC50 in experiment [1] (setting [4]) came to 6.6 ± 3.5 µM.
The compound `Oc1cc(O)c2c(c1)OC(c1cc(O)c(O)c(O)c1)C(O)C2` (single isomer, unassigned; (-)) [Compound 8, (-) gallocatechin] yielded an IC50 in experiment [1] (setting [5]) of 1 ± 0.3 µM.
Turning to `CC(=O)OC[C@@H]1O[C@@H](Oc2c(-c3cc(O)c(O)c(O)c3)oc3cc(O)cc(O)c3c2=O)[C@H](O)[C@H]1OC(C)=O` [Compound 6, myricetin 3-O-α-L-(3",5"-diacetyl-arabinofuranoside)], the IC50 in experiment [1] (setting [4]) was 5.8 ± 2.8 µM.
As for `O=c1c(O[C@@H]2O[C@@H](CO)[C@H](O)[C@H]2O)c(-c2cc(O)c(O)c(O)c2)oc2cc(O)cc(O)c12` [Compound 12, myricetin 3-O-α-L-arabinofuranoside], in experiment [1] (setting [4]), the IC50 stood at 4.2 ± 2.9 µM.
